Data set [1] can be described thus: Pharmacokinetic study in rats, single intramuscular injection, plasma prodrug and parent drug by LC-MS/MS. The format is in vivo, Sprague-Dawley rats. Here is the method: General Procure: The formulations of opioid ester prodrugs are prepared to provide 180 mg/ml suspension by adding 1.8 g of prodrug to a 50 ml glass vial. To the solids is added […] of injection vehicle (2-3% sodium CMC, 0.2% polysorbate 20 in phosphate buffered saline (PBS) pH 7). The resulting mixture is sonicated for 10 min and left standing. The contents of the vial is then shaken until a uniform, clump-free suspension is obtained prior to dosing.
Twelve male Male Sprague-Dawley rats with a body weight approximately 250 g are used in the study. A single intramuscular injection of ester prodrug (180 mg) is administered to rats. Blood samples is collected at 0 (pretreatment) 0.5, 1, 2, 4, 8, 12 and 24 days after administration. Blood is collected with commercially available plastic tubes containing a clot activator. Within 10 min of collection, blood is centrifugation at 2.500 g for 10 min. Plasma is separated and frozen at −18° C. until analyzed by LC-MS/MS. Both prodrug and its corresponding parent drug are analyzed. The pharmacokinetic parameters (AUC, Tmax, Cmax, T1/2, etc) of the test articles are compared to compare the performance of prodrugs to their parent drugs.
Pharmacokinetic Studies for Compounds 2, 3, and 7. Pharmacokinetic studies were conducted for three compounds (Compounds 2, 3 and 7) in rats. The formulations were prepared either in sesame oil (Compound 2, 100 mg eq/mL) or aqueous suspension (Compounds 3 and 7, 100 mg eq/mL and 60 mg eq/mL, respectively). The dosage “eq” refers to the equivalent dosing amount of the respective parent drug, e.g., oxymorphone or hydromorphone in this Example. The sesame oil formulation contains 1.2% benzyl alcohol. The suspension formulation was prepared in PBS buffer containing 2% CMC and 0.2% Tween 80. The particle sizes of the testing compounds in suspension were kept under 10 micron. Both oil and suspension formulations were sterilized by electronic beam before administered to Sprague-Dawley rats.
Twelve Male Sprague-Dawley rats with body weight of approximately 250 gram were randomly divided into three groups. The rats were housed in cages for at least 5 days prior to entering the study and had free access to standard pellets and water during the period. The formulations (0.05 mL) were administered to rats by intra muscular injection via hind leg. Blood (0.10 mL) was sampled by individual tail vein puncture at the following time points: 0.5, 2, 8 hours, 1, 3, 6, 13, 27 days post-dose. Blood was collected into K2EDTA coated tubes and centrifuged at 4° C. at 2000 g in for 10 min to obtain plasma. Plasma (0.05 mL) was immediately quenched with 100 uL methanol/acetonitrile (1:1) containing 50 ng/mL ISTD (Terfenadine and Buspirone). The mixture was vortexed for 1 min and centrifuged at 4000 rpm for 15 min. Supernatant was diluted 2 fold with 0.1% FA in water for injection. Both prodrug and the drug were analyzed using LC-MS/MS on AB Sciex API 5500. The pharmacokinetic parameters were calculated and reported as following.

The conditions of data set [2]: monomeric fatty acid, aqueous; Vorum et al. 1992; cited from earlier work.
The mark [3] stands for this setting: analyte prodrug Compound 2 in plasma, Compound 2 IM 29.7 mg/kg, sesame oil formulation, Rat #14.
Setting [4] is: analyte prodrug Compound 2 in plasma, Compound 2 IM 118.11 mg/kg, sesame oil formulation, Rat #1-3, mean.
Setting [5] is: oxymorphone / Compound 2, Compound 2 IM 29.7 mg/kg, Rat #14.
Setting [6] is: oxymorphone / Compound 2, Compound 2 IM 118.11 mg/kg, Rat #1-3, mean.
[7] abbreviates: analyte prodrug Compound 7 in plasma, Compound 7 IM 102.5 mg/kg, aqueous suspension, N = 4, mean.
The mark [8] stands for this setting: male, Sprague-Dawley, rat, analyte prodrug Compound 7 in plasma, Compound 7 IM 102.5 mg/kg, aqueous suspension, N = 4, mean.
The mark [9] stands for this setting: analyte prodrug Compound 3 in plasma, Compound 3 IM 119.14 mg/kg, aqueous suspension, N = 4, mean.
Where [10] appears, read: oxymorphone / Compound 3, Compound 3 IM 119.14 mg/kg, N = 4, mean.

Read-outs that look alike come from different tables or passages of the source.

For Oxymorphone hexadecanate [Compound 2], the “AUC Extr” value in data set [1] (analyte parent drug oxymorphone in plasma, Compound 2 IM 29.7 mg/kg, sesame oil formulation, Rat #14) is reported as 0.99%. The “AUC Extr” value in data set [1] (analyte parent drug oxymorphone in plasma, Compound 2 IM 118.11 mg/kg, sesame oil formulation, Rat #1-3, mean) was 5.71%. Further, in data set [1] (setting [3]), the “AUC Extr” value worked out at 42.6%, the AUCInf was 30.3 ng·h/mL, the AUCInf/D was 1.02 kg·ng·h/mL/mg and the AUClast was determined as 17.4 ng·h/mL. Moreover, in data set [1] (setting [3]), the Cmax (in general, the peak of the concentration-time curve) amounted to 0.54 ng/mL; the MRTInf is 108 h; the t1/2 was 76 h; the tmax was determined as 2.00 h. In data set [1] (setting [4]), the “AUC Extr” value was determined as 39.8%, the AUCInf came to 101 ng·h/mL, the AUCInf/D is 0.857 kg·ng·h/mL/mg and the AUClast turned out to be 51.3 ng·h/mL. Besides, in data set [1] (setting [4]), the Cmax was determined as 1.62 ng/mL, the MRTInf turned out to be 156 h, the t1/2 turned out to be 130 h and the tmax was 3.50 h. Moreover, in data set [1] (setting [5]), the “AUClast Ratio (Parent/Pro)” value stood at 151 and the “Cmax Ratio (Parent/Pro)” value came to 21. Moreover, in data set [1] (setting [6]), the “AUClast Ratio (Parent/Pro)” value is reported as 161 and the “Cmax Ratio (Parent/Pro)” value turned out to be 63.7.

As for `CCCCCCCCCCCC(=O)O` [laurate], the solubility (in general, the dissolved amount per volume that the medium holds) in data set [2] is “greater than 500 μM”.

With `CCCCCCCCCCCCCC(=O)O` [myristate], the solubility in data set [2] was 20 to 30 µM.

Regarding `CCCCCCCCCCCCCCCCCCCC(=O)Oc1ccc2c3c1O[C@H]1C(=O)CC[C@H]4[C@@H](C2)N(C)CC[C@]314` [Compound 7, Hydromorphone eicosanate], in data set [1] (setting [7]), the “AUC Extr” value is on record as 4.36% and the AUCInf/D was found to be 27.8 kg·ng·h/mL/mg. Also, in data set [1] (setting [8]), the total exposure AUC(0-inf) (commonly the area under the concentration-time curve extrapolated to infinity) came out at 2850 ng·h/mL; the exposure AUC(0-t) (as a rule, the area under the concentration-time curve up to a stated or last time point) turned out to be 2760 ng·h/mL; the mean residence time (MRT inf) (in general, a mean duration of stay, worked out from the concentration-time curve) was 138 h; the half-life (as a rule, how long it takes for the measured level to halve) is 64.4 h. For the same molecule, in data set [1] (male, Sprague-Dawley, rat, analyte prodrug Compound 7 in plasma, Compound 7 IM 102.5 mg/kg, aqueous suspension, N = 4, mean, read-out: Cmax), the highest concentration (Cmax) came to 45.6 ng/mL. The tmax in data set [1] (male, Sprague-Dawley, rat, analyte prodrug Compound 7 in plasma, Compound 7 IM 102.5 mg/kg, aqueous suspension, N = 4, mean, read-out: tmax) came to 6.13 h.

In the case of Oxymorphone eicosanate [Compound 3], the “AUC Extr” value in data set [1] (analyte parent drug oxymorphone in plasma, Compound 3 IM 119.14 mg/kg, aqueous suspension, N = 4, mean) came out at 63.7%. For the same molecule, in data set [1] (setting [9]), the “AUC Extr” value was found to be 29.9%, the AUCInf was found to be 2355 ng·h/mL, the AUCInf/D is 19.8 kg·ng·h/mL/mg and the AUClast came out at 1711 ng·h/mL. Besides, in data set [1] (setting [9]), the Cmax stood at 4.79 ng/mL, the MRTInf was determined as 484 h, the t1/2 stood at 263 h and the tmax came to 212 h. Also, in data set [1] (setting [10]), the “AUClast Ratio (Parent/Pro)” value was found to be 4.44 and the “Cmax Ratio (Parent/Pro)” value stood at 3.22.

Values taken from patent US11254685B2, “Abuse-resistant long-acting release opioid prodrugs” (priority 2017, dated 2022).
